Test [1] addresses T1, Na+, K+-ATPase from pig kidney microsomal membranes (Sus scrofa, UniProt P05024).
T1 construct: Na^+, K^+-ATPase from pig kidney microsomal membranes was purified by differential centrifugation; from tissue; host or cells: pig kidney microsomal membranes
Briefly: Na+,K+-ATPase inhibition assay (residual ATP hydrolysis after 2 h preincubation with inhibitor).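 For all read-outs here: enzyme preincubated with inhibitor in 40 mM Tris pH 7.0 containing 3 mM MgCl2 and 3 mM Na-phosphate, remaining activity measured as phosphate released from ATP.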 Type of test: biochemical. As to conditions: for KC (equilibrium constant E•I ↔ E•I*): KC = Fhigh/Flow; for Ki: Ki (dissociation constant of initial binding E + I ↔ E•I), derived from KDiss,high and KC; for percentage of high-affinity component (Fhigh): magnitude of high-affinity component of the inhibition curve; for percentage of low-affinity component (Flow): magnitude of low-affinity component of the inhibition curve; for ratio of KDiss,high values α-isomer:β-isomer: stereoselectivity, α:β of the same pair.
Description: The residual rates of ATP hydrolysis were plotted vs. different drug concentrations and analysed by fitting hyperbolic functions corresponding to a dominant high-affinity component and (where appropriate) a second smaller low-affinity component, and the resulting kinetic parameters were shown in Table 1.
The solid lines represent hyperbolic fits to the inactivation measured after preincubation of the inhibitors with NKA for 2 hours at 37 °C in the presence of Mg^2+ and Pi.
Na^+, K^+-ATPase from pig kidney microsomal membranes was purified by differential centrifugation[27]. […] The inhibitory effects of bufadienolides on NKA were determined essentially as previously reported[9][10].
Preparation and activity assay of Na+,K+-ATPase
Na+,K+-ATPase from pig kidney microsomal membranes was purified by
differential centrifugation.27 The specific Na,K-ATPase activity was determined
from the difference in the amount of phosphate released in the absence and
4 mM MgCl2 and 3 mM ATP. The specific activity of the enzyme preparation
was approximately 30 µmol ATP hydrolysed/mg protein per min at 37°C.27 The
phosphorylation capacity is about 2.9 nmol/mg protein and is equal to the
high-affinity ouabain binding capacity.10, 27
Details of the kinetic analysis of inhibition
The inhibitory effects of bufadienolides on NKA were determined
essentially as previously reported9, 10. In brief, NKA is preincubated at 37 °C for
2 hours in the presence of 3 mM MgCl2, 3 mM Na-phosphate and 40 mM Tris
(pH 7.0) with increasing concentrations of inhibitor. The residual NKA activity is
subsequently determined by 40-fold dilution into a standard ATPase assay
For each inhibitor concentration the
residual activity was determined in two or three independent experiments and
the error bars in Fig. 4 indicate the standard deviation.
(2) Detailed explanation of the kinetic analysis of inhibition
The interaction between bufalins (I) and Na+,K+-ATPase (E) is interpreted as
relatively slow equilibrium.
The binding of I to E is described by a dissociation constant
The conformational change
is described by an equilibrium constant
After equilibrium is attained by preincubation of the enzyme and inhibitor,
the residual Na+,K+-ATPase activity is measured by a 40-fold dilution into the
assay medium for 2 min. It is assumed that the dilution leads to an immediate
dissociation of E•I into E + I, and it is also assumed that the conformational
change E•I ↔ E•I* is slow on the 2-minutes time scale of the functional assay.
The observed decrease in the Na+,K+-ATPase activity is thus an estimate
of the amount of E•I* present at a given inhibitor concentration in the
preincubation media, and the observed concentration dependence of
inactivation is related to Ki as well as KC.

Test [2] relates to Na+,K+-ATPase membranes. Briefly: 13C CP-MAS SSNMR of NKA membranes with labelled inhibitor (binding-site saturation estimated from Table 1). As to conditions: NKA 13 nmol with 16 nmol inhibitor. Details: species or system pig. An excerpt:
We next considered whether the enhanced activity of 5β arises from the additional hydrogen-bonding capacity of the glucose moiety. […] Here we used ^13C cross-polarization magic-angle spinning (CP-MAS) SSNMR to report on the interactions of the glycosidic groups of 5α and 5β with the binding site. […] In Fig. 5 panels C and D are shown ^13C CP-MAS SSNMR spectra of NKA (13 nmol) in the absence of inhibitor (red) and with 5β or 5α (each 16 nmol) (black), respectively. From Table 1 it is estimated that there is 99.5% saturation of the binding site by 5β and about 75% saturation by 5α. For the complex with 5β (Fig. 5C), signals from the inhibitor can clearly be observed around 60–90 ppm; […].
One dimensional proton-decoupled ^13C CP-MAS NMR experiments were performed at −25 °C using a Bruker Avance 400 MHz spectrometer at a magnetic field of 9.3 T equipped with a 4 mm HXY probe and (for 2D measurements on membranes) on a Bruker Avance III 700 MHz instrument with a 3.2 mm HXY probe operating in double-resonance mode. Samples were spun at a MAS rate of 5 kHz in a 4 mm zirconium rotor. […] Two-dimensional DARR spectra of solid inhibitors were recorded at room temperature with a 2-ms contact time at a field of 63 kHz, 83 kHz SPINAL-64 decoupling, […] and a 8-kHz proton field matched to the spinning frequency during a 10-ms mixing time. […]

Where [3] appears, read: KDiss,high, high-affinity component of inhibition curve, preincubation 2 h, 37 °C, Mg2+ and Pi.
[4] abbreviates: KDiss,low, low-affinity component of inhibition curve, reflects ATPase assay medium.

Where “and” joins values, the source holds several entries; their conditions need not be identical. Identical values can stand only once.

In the case of `CON[C@@H]1CC[C@@]2(C)[C@H](CC[C@@H]3[C@@H]2CC[C@]2(C)[C@@H](c4ccc(=O)oc4)CC[C@]32O)C1` [Compound 4α], in test [1], the “KC (equilibrium constant E•I ↔ E•I*)” value is listed as 9.0, the Ki turned out to be 65 µM, the “percentage of high-affinity component (Fhigh)” value (“percentage … (Fhigh)” for short) turned out to be 90% and the “percentage of low-affinity component (Flow)” value (shortened to “percentage … (Flow)”) amounted to 10%. Besides, in test [1], the “ratio of KDiss,high values α-isomer:β-isomer” value was determined as 145. Besides, the Kd in test [1] (setting [3]) was 7.26 ± 0.16 µM. Moreover, the affinity in test [1] (setting [4]), expressed as Kd, was 524 ± 153 µM.

`CON[C@H]1CC[C@@]2(C)[C@H](CC[C@@H]3[C@@H]2CC[C@]2(C)[C@@H](c4ccc(=O)oc4)CC[C@]32O)C1` [Compound 4β]: in test [1], the “KC (equilibrium constant E•I ↔ E•I*)” value is listed as 6.14; the Ki is ~0.31 µM and 0.31 µM. In addition, the Kd in test [1] (setting [3]) is below 0.05 µM. The same molecule gave a Kd in test [1] (KDiss,low, low-affinity component, value in mM) above 1000 µM.

With `CON([C@@H]1CC[C@@]2(C)[C@H](CC[C@@H]3[C@@H]2CC[C@]2(C)[C@@H](c4ccc(=O)oc4)CC[C@]32O)C1)[C@@H]1O[C@H](CO)[C@@H](O)[C@H](O)[C@H]1O` [Compound 5α], in test [1], the “KC (equilibrium constant E•I ↔ E•I*)” value is on record as 49, the Ki is 1920 µM, the “percentage … (Fhigh)” value is listed as 98% and the “ratio of KDiss,high values α-isomer:β-isomer” value came out at 461. This molecule registered a dissociation constant (Kd) in test [1] (setting [3]) of 39.2 ± 1.5 µM. The “saturation of the binding site” value in test [2] is given as “about 75%”.

For the molecule `CON(C1CCC2(C)C(CCC3C2CCC2(C)C(c4ccc(=O)oc4)CCC32O)C1)C1OC(CO)C(O)C(O)C1O` (stereo not drawn) [Compound 5β], in test [1], the “KC (equilibrium constant E•I ↔ E•I*)” value turned out to be 3.17; the Ki was ~0.26 µM and 0.26 µM; the “percentage … (Fhigh)” value came to 76%. The Kd in test [1] (setting [3]) came out at 0.085 ± 0.01 µM. In addition, the Kd in test [1] (setting [4]) stood at 67.6 ± 38 µM. Moreover, the “saturation of the binding site” value in test [2] is on record as 99.5%.

Regarding `C[C@]12CC[C@](O)(C(F)(F)F)C[C@H]1CC[C@@H]1[C@@H]2CC[C@]2(C)[C@@H](c3ccc(=O)oc3)CC[C@]12O` [Compound 6α], in test [1], the “KC (equilibrium constant E•I ↔ E•I*)” value was found to be 1.86, the Ki turned out to be 42.2 µM, the “percentage … (Fhigh)” value is on record as 65% and the “percentage … (Flow)” value was 33%. The “ratio of KDiss,high values α-isomer:β-isomer” value in test [1] amounted to 6.4. Also, the Kd in test [1] (setting [3]) is 22.7 ± 1.56 µM. Further, in test [1] (setting [4]), binding was characterised by a dissociation constant (Kd) of 242 ± 35 µM.

With `C[C@]12CC[C@@](O)(C(F)(F)F)C[C@H]1CC[C@@H]1[C@@H]2CC[C@]2(C)[C@@H](c3ccc(=O)oc3)CC[C@]12O` [Compound 6β], in test [1], the “KC (equilibrium constant E•I ↔ E•I*)” value was 1.78, the Ki is 6.3 µM, the “percentage … (Fhigh)” value amounted to 64% and the “percentage … (Flow)” value is listed as 32%. In addition, the Kd in test [1] (setting [3]) is 3.56 ± 0.6 µM. The affinity in test [1] (setting [4]), expressed as Kd, was 93.5 ± 67 µM.

What is called Kd is the constant that tells how readily two partners part at equilibrium. Lower therefore signals tighter binding. Broadly, the Ki is a measure of affinity in units of concentration, obtained from inhibition or displacement.
